Laboratory results from publication PMC7833600 (The Journal of Biological Chemistry, 2021).
Non-standard residues stand in square brackets, D forms with d. Residues, ends and D or L forms follow the SMILES beside them. No end group written: not given here. *: point of attachment. Dnp = O=[N+]([O-])c1ccc(*)c([N+](=O)[O-])c1; Sta = CC(C)C[C@H](N)[C@@H](O)CC(=O)O; Mca = COc1ccc2c(CC(=O)*)cc(=O)oc2c1; Isovaleryl = CC(C)CC(=O)*

Columns and labels:
human ACE2 [1] = target: T1, human ACE2 (Homo sapiens, UniProt Q9BYF1); type: biochemical
T1 sequence (Q9BYF1 18-740 limits assumed): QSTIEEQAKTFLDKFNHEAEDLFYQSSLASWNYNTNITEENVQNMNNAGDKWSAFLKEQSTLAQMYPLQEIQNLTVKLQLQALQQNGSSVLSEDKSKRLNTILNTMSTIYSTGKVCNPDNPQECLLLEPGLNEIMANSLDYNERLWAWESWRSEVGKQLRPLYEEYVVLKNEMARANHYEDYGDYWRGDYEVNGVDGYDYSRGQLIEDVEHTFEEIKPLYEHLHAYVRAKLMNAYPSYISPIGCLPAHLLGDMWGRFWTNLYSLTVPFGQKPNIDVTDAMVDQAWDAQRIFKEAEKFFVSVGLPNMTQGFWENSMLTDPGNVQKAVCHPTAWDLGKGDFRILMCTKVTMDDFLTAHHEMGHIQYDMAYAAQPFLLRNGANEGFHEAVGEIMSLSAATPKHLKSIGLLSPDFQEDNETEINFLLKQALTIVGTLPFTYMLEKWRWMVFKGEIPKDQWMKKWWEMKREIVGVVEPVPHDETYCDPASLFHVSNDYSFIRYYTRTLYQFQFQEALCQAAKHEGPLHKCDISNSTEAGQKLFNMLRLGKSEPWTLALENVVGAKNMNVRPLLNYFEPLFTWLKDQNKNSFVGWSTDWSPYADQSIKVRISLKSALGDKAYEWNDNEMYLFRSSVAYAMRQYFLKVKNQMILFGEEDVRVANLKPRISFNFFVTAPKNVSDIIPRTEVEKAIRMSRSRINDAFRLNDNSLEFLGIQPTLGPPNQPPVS

ACE2 = conditions: cited from earlier work
human ACE2 [2] = target: T1, human ACE2; test: biochemical; conditions: IC50 for Competitive substrates, 1 h, 26 °C
human ACE2 [3] = target: T1, human ACE2; type: biochemical; remark: listed apart in the source

CC(=O)N[C@@H](CC(C)C)C(=O)N[C@@H](CC(C)C)C(=O)N[C@H](C=O)CCCNC(=N)N [leupeptin]
effect on ACE2 activity (human ACE2 [1]): no effects

CC(C)CC(=O)N[C@H](C(=O)N[C@H](C(=O)N[C@@H](CC(C)C)[C@@H](O)CC(=O)N[C@@H](C)C(=O)N[C@@H](CC(C)C)[C@@H](O)CC(=O)O)C(C)C)C(C)C [pepstatin A] (Isovaleryl-VV[Sta]A[Sta]-OH)
effect on ACE2 activity (human ACE2 [1]): no effects

CC(C)C[C@H](N[C@@H](Cc1cncn1Cc1cc(Cl)cc(Cl)c1)C(=O)O)C(=O)O [MLN-4760]
effect on ACE2 activity (human ACE2 [1]): completely blocked | effect on the spike / RBD mediated enhancement of ACE2 cleavage (human ACE2 [1]): abolished

NCCc1ccc(S(=O)(=O)F)cc1 [AEBSF]
effect on ACE2 activity (human ACE2 [1]): no effects

QRPRLSHKGPMP↓F [Apelin-13]
k cat/Km of ACE2 cleavage (ACE2): > 1e+06 M⁻¹ s⁻¹

RPPGFSPFR [BK, bradykinin]
IC50 (human ACE2 [2]): 680 ± 87 µM

Mca-YVADAPK(Dnp)-OH
amount of substrate cleaved by ACE2 (human ACE2 [3]): ~0.5 µM

YGGFLRRIRPKL↓K [dynorphin A 1-13]
k cat/Km of ACE2 cleavage (ACE2): > 1e+06 M⁻¹ s⁻¹

N=C(N)NCCC[C@H](N)C(=O)N1CCC[C@H]1C(=O)N1CCC[C@H]1C(=O)NCC(=O)N[C@@H](Cc1ccccc1)C(=O)N[C@@H](CO)C(=O)N1CCC[C@H]1C(=O)N[C@@H](Cc1ccccc1)C(=O)O [desBK, des-Arg^9-bradykinin]
IC50 (human ACE2 [2]): 1430 ± 655 µM

Mca-RPPGFSAFK(Dnp)-OH
amount of substrate cleaved by ACE2 (human ACE2 [3]): ~0.05 µM
